The text below walks through data of patent US7615641B2, “Long chain aliphatic alcohol derivatives and methods of making and using same” (Sino Pharmaceuticals Corporation, priority 2004, dated 2009).

Molecules are shown by their SMILES.

By melting point is commonly meant the temperature, or range, at which the solid turns liquid. As for `CCCCCCCCCCCCCCCCCCCCCCCCCCCCOC(=O)c1cccnc1.Cl`, the melting point lay in the range of 58 to 60 °C.
The same measure for `CCCCCCCCCCCCCCCCCCCCCCCCCCCCOC(=O)c1cccnc1` [1-octacosanyl nicotinate]: 65 to 70 °C.
